Measured values as given in US9890117B2, “Benzamide compounds and related methods of use” (Northwestern University, priority 2012, dated 2018).
Where a name gives a salt, the structure may show the parent alone.

Biological target: T1, SIRT2 (Homo sapiens, UniProt Q8IXJ6)
T1 construct: recombinant active enzymes SIRT1, SIRT2, and the catalytically active fragment of SIRT3
T1 sequence (Q8IXJ6 1-389): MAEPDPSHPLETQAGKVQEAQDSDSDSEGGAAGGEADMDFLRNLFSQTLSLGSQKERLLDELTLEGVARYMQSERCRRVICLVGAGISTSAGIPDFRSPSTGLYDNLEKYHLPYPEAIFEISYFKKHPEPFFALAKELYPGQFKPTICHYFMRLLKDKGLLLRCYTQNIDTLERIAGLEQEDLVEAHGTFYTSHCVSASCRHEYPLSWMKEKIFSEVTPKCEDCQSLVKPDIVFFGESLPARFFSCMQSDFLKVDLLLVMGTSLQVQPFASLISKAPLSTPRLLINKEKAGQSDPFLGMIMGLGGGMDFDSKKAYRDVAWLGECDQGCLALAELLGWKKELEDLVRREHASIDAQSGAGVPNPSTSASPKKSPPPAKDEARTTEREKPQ
Assay: Fluor-de-Lys biochemical sirtuin deacetylation assay, SIRT2

[1] = sulfone, sulfoxide, thioether derivatives of C2-8 scaffold

For `CC(=O)c1ccc(NC(=O)c2cncc(CN(Cc3ccc(F)c(F)c3)C3CC3)c2)cc1` [Compound 225u, N-(4-acetylphenyl)-5-((cyclopropyl(3,4-difluorobenzyl)amino)methyl)nicotinamide hydrochloride], the inhibition at 10 µM was 5%.
In the case of `CC(=O)c1ccc(C(C)Oc2cccc(C(=O)Nc3ccc(Br)cc3)c2)cc1` (stereo not drawn) [Compound 216Ba, 3-(1-(4-acetylphenyl)ethoxy)-N-(4-bromophenyl)benzamide], the inhibition at 10 µM is reported as 85%.
In the case of `O=C(Nc1ccc(Cl)nn1)c1cccc(S(=O)(=O)Cc2ccc(Cl)cc2)c1` [Compound 179, 3-((4-chlorobenzyl)sulfonyl)-N-(6-chloropyridazin-3-yl)benzamide], the inhibition at 10 µM [1] is reported as 0%.
With `C[C@H](N)c1ccc(N(C)S(=O)(=O)c2cccc(C(=O)Nc3ccc(C#N)cc3)c2)cc1` [Compound 203Au, (S)-3-(N-(4-(1-aminoethyl)phenyl)-N-methylsulfamoyl)-N-(4-cyanophenyl) benzamide hydrochloride] the inhibition at 10 µM was 39%.
Molecule `CN(c1ccc(O)cc1)S(=O)(=O)c1cccc(C(=O)Nc2ccc(C#N)cc2)c1` [Compound 203Ax, N-(4-cyanophenyl)-3-(N-(4-hydroxyphenyl)-N-methylsulfamoyl)benzamide] has an inhibition at 10 µM of 51%.
For `N#Cc1ccc(NC(=O)c2cccc([S+]([O-])Cc3ccc(Cl)cc3)c2)cc1` (stereo not drawn) [Compound 186, N-(4-cyanophenyl)-3-((4-chlorobenzyl)sulfinyl)benzamide], the inhibition at 10 µM [1] was 47%.
Molecule `CN(c1ccc(Cl)cc1)S(=O)(=O)c1cccc(C(=O)Nc2ccc(CN)cc2)c1` [Compound 203Aa, N-(4-(aminomethyl)phenyl)-3-(N-(4-chlorophenyl)-N-methylsulfamoyl)benzamide] has an inhibition at 10 µM of 15%.
With `CC(=O)c1ccc(C(Oc2cccc(C(=O)Nc3ccc(C#N)cc3)c2)C(C)C)cc1` (stereo not drawn) [Compound 216Ap, 3-(1-(4-acetylphenyl)-2-methylpropoxy)-N-(4-cyanophenyl)benzamide] the inhibition at 10 µM was 44%.
`CC(=O)c1ccc(C(C)Oc2cccc(C(=O)Nc3ccc(F)cc3)c2)cc1` (stereo not drawn) [Compound 216Aw, 3-(1-(4-acetylphenyl)ethoxy)-N-(4-fluorophenyl)benzamide] was tested, and the inhibition at 10 µM was 62%.
For `C[C@H](Oc1cccc(C(=O)Nc2ccc(C#N)cc2)c1)c1ccc(F)cc1` [Compound 216o, (S)—N-(4-cyanophenyl)-3-(1-(4-fluorophenyl)ethoxy)benzamide], the inhibition at 10 µM was 54%.
With `COc1ccc(CS(=O)(=O)c2cccc(C(=O)Nc3ccc(C#N)cc3)c2)cc1` [Compound 180, N-(4-cyanophenyl)-3-((4-methoxybenzyl)sulfonyl)benzamide] the inhibition at 10 µM [1] was 50%.
Work on `CC(=O)c1ccc(CN(Cc2cccc(C(=O)Nc3ccc(C#N)cc3)c2)C2CC2)cc1` [Compound 225x, 3-(((4-acetylbenzyl)(cyclopropyl)amino)methyl)-N-(4-cyanophenyl)benzamide hydrochloride] yielded an inhibition at 10 µM of 24%.
`C[S+]([O-])c1cccc(NC(=O)c2cccc(S(=O)(=O)N3CCCCCC3)c2)c1` (stereo not drawn) [Compound 141, 3-(azepan-1-ylsulfonyl)-N-(3-(methylsulfinyl)phenyl)benzamide] was tested, and the “% of SIRT2 Inhibition at 10 μM” value (AK-1 derivatives) was 1%.
`CC(=O)c1ccc(C(C)(C)Oc2cccc(C(=O)Nc3ccc(C(F)(F)F)cc3)c2)cc1` [Compound 216Au, 3-((2-(4-acetylphenyl)propan-2-yl)oxy)-N-(4-(trifluoromethyl)phenyl)benzamide] was tested, and the inhibition at 10 µM was 27%.
With `C[C@@H](Oc1cccc(/C(N)=N\c2ccc(C#N)cc2)c1)c1ccc(C#N)cc1` [Compound 234c, (R)—N′-(4-cyanophenyl)-3-(1-(4-cyanophenyl)ethoxy)benzimidamide hydrochloride] the inhibition at 10 µM was 39%.
With `N#Cc1ccc(NC(=O)c2cccc(CN3CCc4cc(Br)ccc4C3)c2)cc1` [Compound 225q, 3-((6-bromo-3,4-dihydroisoquinolin-2(1H)-yl)methyl)-N-(4-cyanophenyl)benzamide hydrochloride] the inhibition at 10 µM was 80%.
In the case of `CS(=O)(=O)c1ccc(CS(=O)(=O)c2cccc(C(=O)Nc3ccc(C#N)cc3)c2)cc1` [Compound 212a, N-(4-cyanophenyl)-3-((4-(methylsulfonyl)benzyl)sulfonyl)benzamide], the inhibition at 10 µM is reported as 19%.
Molecule `CC(=O)c1ccc([C@H](C)Oc2cccc(C(=O)Nc3ccc(C#N)cc3)c2)cc1` [Compound 216Al, (S)-3-(1-(4-acetylphenyl)ethoxy)-N-(4-cyanophenyl)benzamide] has an inhibition at 10 µM of 60%.
In the case of `CC(=O)c1ccc(CN(Cc2cncc(C(=O)Nc3ccc(C#N)cc3)c2)C2CC2)cc1` [Compound 225r, 5-(((4-acetylbenzyl)(cyclopropyl)amino)methyl)-N-(4-cyanophenyl)nicotinamide hydrochloride], the inhibition at 10 µM is reported as 10%.
With `CN(Cc1ccc(C#N)cc1)Cc1cccc(C(=O)Nc2ccc(C#N)cc2)c1` [Compound 225a, 3-(((4-cyanobenzyl)(methyl)amino)methyl)-N-(4-cyanophenyl)benzamide] the inhibition at 10 µM was 63%.
Molecule `C[S+]([O-])c1ccc(NC(=O)c2cccc([S+]([O-])Cc3ccc(Cl)cc3)c2)cc1` (stereo not drawn) [Compound 187, 3-((4-chlorobenzyl)sulfinyl)-N-(4-(methylsulfinyl)phenyl)benzamide] has an inhibition at 10 µM [1] of 24%.
`CC(=O)c1ccc(C(C)Oc2cccc(C(=O)Nc3ccc(Cl)cc3)c2)cc1` (stereo not drawn) [Compound 216Av, 3-(1-(4-acetylphenyl)ethoxy)-N-(4-chlorophenyl)benzamide] showed an inhibition at 10 µM of 89%.
`N#Cc1ccc(NC(=O)c2cccc3c2CCN(Cc2ccc(F)c(F)c2)C3)cc1` [Compound 225m, N-(4-cyanophenyl)-2-(3,4-difluorobenzyl)-1,2,3,4-tetrahydroisoquinoline-5-carboxamide hydrochloride] was tested, and the inhibition at 10 µM was 65%.
`CC(=O)c1ccc(C(C)Oc2cccc(C(=O)Nc3ccc(CC#N)cc3)c2)cc1` (stereo not drawn) [Compound 216Az, 3-(1-(4-acetylphenyl)ethoxy)-N-(4-(cyanomethyl)phenyl)benzamide] gave an inhibition at 10 µM of 58%.
For `CC(Oc1cccc(C(=O)Nc2ccc(C#N)cc2)c1)c1ccc(C2COC2)cc1` (stereo not drawn) [Compound 216Ah, N-(4-cyanophenyl)-3-(1-(4-(oxetan-3-yl)phenyl)ethoxy)benzamide], the inhibition at 10 µM was 41%.
`N/C(=N/c1cccc([N+](=O)[O-])c1)c1cccc(S(=O)(=O)N2CCCCCC2)c1` [Compound 234e, 3-(azepan-1-ylsulfonyl)-N′-(3-nitrophenyl)benzimidamide] gave an inhibition at 10 µM of 27%.
For `C=CCOc1cc(OCc2ccc(C#N)cc2)cc(C(=O)Nc2ccc(C#N)cc2)c1` [Compound 216v, 3-(allyloxy)-5-((4-cyanobenzyl)oxy)-N-(4-cyanophenyl)benzamide], the inhibition at 10 µM was 11%.
Work on `CC(=O)c1ccc([C@@H](C)Oc2cncc(C(=O)Nc3ccc(C#N)cc3)c2)cc1` [Compound 216An, (R)-5-(1-(4-acetylphenyl)ethoxy)-N-(4-cyanophenyl)nicotinamide] yielded an inhibition at 10 µM of 95%.
For `C[C@@H](Oc1cccc(C(=O)Nc2ccc(C#N)cc2)c1)c1ccc(F)cc1` [Compound 216l, (R)—N-(4-cyanophenyl)-3-(1-(4-fluorophenyl)ethoxy)benzamide], the inhibition at 10 µM was 88%.
For `C[S+]([O-])c1ccc(NC(=O)c2cccc(S(=O)(=O)Cc3ccc(Cl)cc3)c2)cc1` (stereo not drawn) [Compound 175, 3-((4-chlorobenzyl)sulfonyl)-N-(4-(methylsulfinyl)phenyl)benzamide], the inhibition at 10 µM [1] was 31%.
`CCC(CC)Oc1cccc(C(=O)Nc2ccc(C#N)cc2)c1` [Compound 216Ao, N-(4-cyanophenyl)-3-(pentan-3-yloxy)benzamide] showed an inhibition at 10 µM of 37%.
In the case of `CN(c1ccc(Cl)cc1)S(=O)(=O)c1cccc(C(=O)NCc2ccccn2)c1` [Compound 62, 3-(N-(4-chlorophenyl)-N-methylsulfamoyl)-N-(pyridin-2-ylmethyl)benzamide], the “% of SIRT2 Inhibition at 10 μM” value (C2-8 derivatives) is reported as 3%.
`C[S+]([O-])c1cccc(NC(=O)c2cccc(S(=O)(=O)N3CCCCCC3)c2)c1` (stereo not drawn) [Compound 138, 3-(azepan-1-ylsulfonyl)-N-(3-(methylsulfinyl)phenyl)benzamide] was tested, and the “% of SIRT2 Inhibition at 10 μM” value (AK-1 derivatives) was 4%.
`CN(c1ccc(S(C)(=O)=O)cc1)S(=O)(=O)c1cccc(C(=O)Nc2ccc(Cl)cc2)c1` [Compound 117, N-(4-Chlorophenyl)-3-(N-methyl-N-(4-(methylsulfonyl)phenyl)sulfamoyl)benzamide] was tested, and the “SIRT2 inhibition potency compared with AK-1” value (dose-response, five doses, side-by-side with AK-1) was “equal or just slightly better potency”.
Work on `N#Cc1ccc(NC(=O)c2cccc(CN(Cc3ccc(Br)cc3)C3CC3)c2)cc1` [Compound 225l, 3-(((4-bromobenzyl)(cyclopropyl)amino)methyl)-N-(4-cyanophenyl)benzamide hydrochloride] yielded an inhibition at 10 µM of 37%.
`CC(=O)c1ccc(NC(=O)c2cccc(S(=O)(=O)Cc3ccc(Cl)cc3)c2)cc1` [Compound 178, N-(4-acetylphenyl)-3-((4-chlorobenzyl)sulfonyl)benzamide] showed an inhibition at 10 µM [1] of 23%.
With `CC(Oc1cccc(C(=O)Nc2ccc(C#N)cc2)c1)c1ccc(C2(C)COC2)cc1` (stereo not drawn) [Compound 216Aj, N-(4-cyanophenyl)-3-(1-(4-(3-methyloxetan-3-yl)phenyl)ethoxy)benzamide] the inhibition at 10 µM was 43%.
`Nc1cccc(NC(=O)c2cccc(S(=O)(=O)N3CCCCCC3)c2)c1` [Compound 203i, N-(3-aminophenyl)-3-(azepan-1-ylsulfonyl)benzamide] was tested, and the inhibition at 10 µM was 43%.
In the case of `N#Cc1ccc(NC(=O)c2cccc(CN(Cc3ccc(F)c(F)c3)C3CC3)c2)cc1` [Compound 225d, N-(4-cyanophenyl)-3-((cyclopropyl(3,4-difluorobenzyl)amino)methyl)benzamide hydrochloride], the inhibition at 10 µM is reported as 55%.
